From patent US9249102B2 (priority 2012, dated 2016)
Like-named read-outs stand apart in the source and are kept apart here.

Legend:
[1] = system: Haemonchus contortus; test: Method A: Haemonchus contortus L1 larvae, microtitre plate screen; settings: 96 h, read-out: motility inhibition
[2] = system: microfilaria of Dirofilaria immitis; test: Method F: microfilaria of Dirofilaria immitis, survival at 24 hours
[3] = system: Cooperia oncophora; test: Method C: Cooperia oncophora L1 larvae in vitro; settings: 96 h, read-out: inhibition of motility
[4] = survival of microfilaria at 24 hours

SMILES | inhibition at 5 µg/mL [1] [%] | EC50 [2, 4] [µg/mL] | inhibition at 5 µg/mL [3] [%] | EC50 [2] [µg/mL]
CN(c1ccc([N+](=O)[O-])c(C(F)(F)F)c1)[C@H]1CC[C@H](OCC(=O)N2CCN(c3ccc4cc(Br)ccc4n3)CC2)CC1 [Compound 269, 2-[(4-[methyl-[4-nitro-3-(trifluoromethyl)phenyl]amino]cyclohexyl)-oxy]1-[4-(6-bromoquinolin-2-yl)piperazin-1-yl]ethan-1-one] | ≥ 90 | < 5 | ≥ 90 | –
O=C(CO[C@H]1CC[C@H](Nc2ccc([N+](=O)[O-])c(C(F)(F)F)c2)CC1)N1CCN(c2ccc3cc(F)ccc3c2F)CC1 [Compound 289, 1-[4-(1,6-difluoro-naphthalen-2-yl)-piperazin-1-yl]-2-[4-(4-nitro-3-trifluoromethyl-phenylamino)-cyclohexyloxy]-ethanone] | ≥ 90 | – | ≥ 90 | –
O=C(CO[C@H]1CC[C@H](Nc2ccc(S(=O)(=O)C(F)(F)F)cc2)CC1)N1CCN(Cc2nc3cc(C(F)(F)F)ccc3s2)CC1 [Compound 344, 1-[4-[[5-(trifluoromethyl)-1,3-benzothiazol-2-yl]methyl]piperazin-1-yl]-2-[4-[4-(trifluoromethylsulfonyl)anilino]cyclohexoxy]ethanone] | ≥ 90 | – | ≥ 90 | –
Cc1cc(N2CCN(C(=O)CO[C@H]3CC[C@H](Nc4ccc([N+](=O)[O-])c(C(F)(F)F)c4)CC3)CC2)nc2ccc(F)cc12 [Compound 99, 1-[4-(6-fluoro-4-methyl-2-quinolyl)piperazin-1-yl]-2-[4-[4-nitro-3-(trifluoromethyl)anilino]cyclohexoxy]ethanone] | ≥ 90 | < 1 | ≥ 90 | –
O=C(CO[C@H]1CC[C@H](Nc2ccc([N+](=O)[O-])c(C(F)(F)F)c2)CC1)N1CCN(CC2Cc3cc(Cl)ccc3O2)CC1 (stereo partly shown) [Compound 76, 1-[4-[(5-chloro-2,3-dihydro-1-benzofuran-2-yl)methyl]piperazin-1-yl]-2-[(4-[[4-nitro-3-(trifluoromethyl)phenyl]amino]cyclohexyl)oxy]ethan-1-one] | ≥ 90 | – | ≥ 90 | < 5
O=C(CO[C@H]1CC[C@H](Nc2ccc([N+](=O)[O-])c(C(F)(F)F)c2)CC1)N1CCN(C(=O)c2cc3cc(C(F)(F)F)ccc3o2)CC1 [Compound 183, 2-[(4-[[4-nitro-3-(trifluoromethyl)phenyl]amino]cyclohexan-1-e)oxy]-1-(4-[[5-(trifluoromethyl)-1-benzofuran-2-yl]carbonyl]piperazin-1-yl)ethan-1-one] | ≥ 90 | < 1 | ≥ 90 | –
C[C@@H]([C@H]1Cc2cc(F)ccc2O1)N1CCN(C(=O)COC2CCC(Nc3ccc([N+](=O)[O-])c(C(F)(F)F)c3)CC2)CC1 (relative stereo) [Compound 260, 1-(4-((S)-1-((R)-5-fluoro-2,3-dihydrobenzofuran-2-yl)ethyl)piperazin-1-yl)-2-(4-(4-nitro-3-(trifluoromethyl)phenylamino)cyclohexyloxy)ethanone] | ≥ 90 | < 1 | ≥ 90 | –
Cc1cc(N2CCN(C(=O)CO[C@H]3CC[C@H](Nc4ccc([N+](=O)[O-])c(C(F)(F)F)c4)CC3)CC2)nc2ccc(Cl)cc12 [Compound 270, 1-[4-(6-chloro-4-methyl-2-quinolyl)piperazin-1-yl]-2-[4-[4-nitro-3-(trifluoromethyl)anilino]cyclohexoxy]ethanone] | ≥ 90 | < 1 | ≥ 90 | –
N#Cc1ccc(N[C@H]2CC[C@H](OCC(=O)N3CCN(c4ccc5cc(Br)ccc5n4)CC3)CC2)cc1C(F)(F)F [Compound 271, 2-[(4-[[4-cyano-3-(trifluoromethyl)phenyl]amino]cyclohexyl)oxy]-1-[4-(6-bromoquinolin-2-yl)piperazin-1-yl]ethan-1-one] | ≥ 90 | < 1 | ≥ 90 | –
O=C(CO[C@H]1CC[C@H](Nc2ccc(S(=O)(=O)C(F)(F)F)cc2)CC1)N1CCN(c2ccc3cc(C(F)(F)F)ccc3n2)CC1 [Compound 331, 1-[4-[6-(trifluoromethyl)-2-quinolyl]piperazin-1-yl]-2-[4-[4-(trifluoromethylsulfonyl)anilino]cyclohexoxy]ethanone] | ≥ 90 | – | ≥ 90 | –
O=C(CO[C@H]1CC[C@H](Nc2ccc([N+](=O)[O-])c(C(F)(F)F)c2)CC1)N1CCN(c2nc3cc(F)ccc3s2)CC1 [Compound 237, 1-[4-(5-fluoro-1,3-benzothiazol-2-yl)piperazin-1-yl]-2-[[4-[[4-nitro-3-(trifluoromethyl)pheny-1]amino]cyclohexyl]oxy]ethan-1-one] | ≥ 90 | < 0.1 | ≥ 90 | –
O=C(CO[C@H]1CC[C@H](Nc2ccc([N+](=O)[O-])c(C(F)(F)F)c2)CC1)N1CCN(c2ccc3cc(Cl)ccc3n2)CC1 [Compound 90, 1-[4-(6-chloroquinolin-2-yl)piperazin-1-yl]-2-[(4-[[4-nitro-3-(trifluoromethyl)phenyl]amino]cyclohexyl)oxy]ethan-1-one] | ≥ 90 | < 0.1 | ≥ 90 | –
N#Cc1ccc(N[C@H]2CC[C@H](OCC(=O)N3CCN(c4ccc5cc(F)ccc5c4F)CC3)CC2)cc1C(F)(F)F [Compound 290, 4-(4-{2-[4-(1,6-difluoro-naphthalen-2-yl)-piperazin-1-yl]-2-oxo-ethoxy}-cyclohexylamino)-2-trifluoromethyl-benzonitrile] | ≥ 90 | < 1 | ≥ 90 | –
CN(c1ccc(C#N)c(C(F)(F)F)c1)[C@H]1CC[C@H](OCC(=O)N2CCN(c3ccc4cc(Cl)ccc4n3)CC2)CC1 [Compound 282, 2-[(4-[methyl[4-cyano-3-(trifluoromethyl)phenyl]amino]cyclohexyl)-oxy]1-[4-(6-chloroquinolin-2-yl)-piperazin-1-yl]ethan-1-one] | ≥ 90 | – | ≥ 90 | –
CN(c1ccc(C#N)c(C(F)(F)F)c1)[C@H]1CC[C@H](OCC(=O)N2CCN(c3ccc4cc(Br)ccc4n3)CC2)CC1 [Compound 281, 2-[(4-[methyl[4-cyano-3-(trifluoromethyl)phenyl]amino]cyclohexyl)-oxy]-1-[4-(6-bromoquinolin-2-yl)piperazin-1-yl]ethan-1-one] | ≥ 90 | – | ≥ 90 | –
CC(c1nc2cc(C(F)(F)F)ccc2s1)N1CCN(C(=O)CO[C@H]2CC[C@H](Nc3ccc([N+](=O)[O-])c(C(F)(F)F)c3)CC2)CC1 (stereo partly shown) [Compound 343, 2-[4-(4-nitro-3-trifluoromethyl-phenylamino)-cyclohexyloxy]-1-{4-[1-(5-trifluoromethyl-benzothiazol-2-yl)-ethyl]-piperazin-1-yl}-ethanone] | ≥ 90 | – | ≥ 90 | –
O=C(CO[C@H]1CC[C@H](Nc2ccc([N+](=O)[O-])c(C(F)(F)F)c2)CC1)N1CCN(Cc2cc3cc(OC(F)(F)F)ccc3o2)CC1 [Compound 326, 2-[(4-[[4-nitro-3-(trifluoromethyl)phenyl]amino]cyclohexyl)-oxy]1-[4-[5-(trifluoromethoxy)benzofuran-2-ylmethyl]piperazin-1-yl]ethan-1-one] | ≥ 90 | – | ≥ 90 | –
O=C(CO[C@H]1CC[C@H](Nc2ccc([N+](=O)[O-])c(C(F)(F)F)c2)CC1)N1CCN(C(=O)c2cc3cc(F)ccc3o2)CC1 [Compound 182, 1-[4-[(5-fluoro-1-benzofuran-2-yl)carbonyl]piperazin-1-yl]-2-[(4-[[4-nitro-3-(trifluoromethyl)phenyl]amino]cyclohexyl)oxy]ethan-1-one] | ≥ 90 | < 5 | – | –
O=C(CO[C@H]1CC[C@H](Nc2ccc([N+](=O)[O-])c(C(F)(F)F)c2)CC1)N1CCN(c2ccc3cc(C(F)(F)F)ccc3c2)CC1 [Compound 232, 2-[4-(4-nitro-3-trifluoromethyl-phenylamino)-cyclohexyloxy]-1-[4-(6-trifluoromethyl-naphthalen-2-yl)-piperazin-1-yl]-ethanone] | ≥ 90 | < 5 | – | –
O=[N+]([O-])c1ccc(N[C@H]2CC[C@H](OCC(=S)N3CCN(CC4Cc5cc(F)ccc5O4)CC3)CC2)cc1C(F)(F)F (stereo partly shown) [Compound 265, 1-[4-(5-fluoro-2,3-dihydro-benzofuran-2-ylmethyl)-piperazin-1-yl]-2-[4-(4-nitro-3-trifluoromethyl-phenylamino)-cyclohexyloxy]-ethanethione] | ≥ 90 | < 1 | – | –
O=C(CO[C@H]1CC[C@H](Nc2ccc([N+](=O)[O-])c(C(F)(F)F)c2)CC1)N1CCc2cc(C(F)(F)F)ccc2C1 [Compound 194, 2-[(4-[[4-nitro-3-(trifluoromethyl)phenyl]amino]cyclohexyl)oxy]-1-[6-(trifluoromethyl)-1,2,3,4-tetrahydroisoquinolin-2-yl]ethan-1-one] | ≥ 90 | < 1 | – | –
CC(CN1CCN(c2ccc3cc(C(F)(F)F)ccc3n2)CC1)C(=O)N1CCC(Nc2ccc([N+](=O)[O-])c(C(F)(F)F)c2)CC1 (stereo not shown) [Compound 92, 2-methyl-1-(4-(4-nitro-3-(trifluoromethyl)phenylamino)piperidin-1-yl)-3-(4-(6-(trifluoromethyl)quinolin-2-yl)piperazin-1-yl)propan-1-one] | ≥ 90 | < 1 | – | –
O=C(COc1ccc(Nc2ccc([N+](=O)[O-])c(C(F)(F)F)c2)cc1)N1CCN(C(=O)c2cc3cc(Cl)ccc3o2)CC1 [Compound 189, 1-[4-[(5-chloro-1-benzofuran-2-yl)carbonyl]piperazin-1-yl]-2-(4-[[4-nitro-3-(trifluoromethyl)phenyl]amino]phenoxy)ethan-1-one] | ≥ 90 | < 5 | – | –
O=C(CO[C@H]1CC[C@H](Nc2ccc([N+](=O)[O-])c(C(F)(F)F)c2)CC1)N1CC2CCC1CN2CC1Cc2cc(F)ccc2O1 (stereo partly shown) [Compound 309, 1-[5-(5-fluoro-2,3-dihydro-benzofuran-2-ylmethyl)-2,5-diaza-bicyclo[2.2.2]oct-2-yl]-2-[4-(4-nitro-3-trifluoromethyl-phenylamino)-cyclohexyloxy]-ethanone] | ≥ 90 | < 0.1 | – | –
